Measurements from patent US12582640B2, “Treatment of lower respiratory tract infection with tradipitant” (Vanda Pharmaceuticals Inc., priority 2020, dated 2026).

System: severe or critical COVID-19 infection
Assay: Randomized, double-blind, placebo-controlled study of tradipitant in hospitalized patients with COVID-19 pneumonia (interim analysis, ITT population)
Assay type: in vivo, human
Parameters: Mortality KM estimate: concentration or dose not given beside the values
Settings: for Mortality hazard ratio (95% CI) / Hazard ratio (95% CI), responder as improvement of 2 or more points / Odds ratio (95% CI), ordinal score at Day 7 / Odds ratio (95% CI), ordinal score at Day 28: tradipitant vs placebo; for Mortality hazard ratio (95% CI) / Hazard ratio (95% CI), responder as improvement of 2 or more points: Cox model; for Odds ratio (95% CI), ordinal score at Day 7 / Odds ratio (95% CI), ordinal score at Day 28: proportional odds model
Description: A randomized, double-blind, placebo-controlled study investigates the efficacy of tradipitant in the treatment of inflammatory lung injury and pneumonia associated with severe or critical COVID-19 infection, and improvement of clinical outcomes associated with severe or critical COVID-19 infection. Such improvements in clinical outcomes include reduction in long term pulmonary function deficits and pulmonary fibrosis.
Methods: Prospective participants attend a screening visit on study day −1 to 0 to assess the prospective patient's eligibility to participate. All enrolled patients are asked to undertake an initial physical examination and must satisfy inclusion and exclusion criteria before being enrolled into the study. A total sample size of 300 patients (150 per arm) provides approximately 93% power to detect a 20% difference of normalization in fever and oxygen saturation, assuming 50% and 70% normalization rates in placebo and tradipitant treatment groups respectively, based on a two-sided Fisher's Exact Test at a 5% significance level.
Inclusion criteria include: adults aged 18-90; confirmed laboratory COVID-19 infection by RT-PCR; confirmed pneumonia by chest radiograph or computed tomography; fever defined as temperature ≥36.6° C. armpit, ≥37.2° C. oral, or ≥37.8° C. rectal; and oxygen saturation of less than 92% on room air OR on mechanical ventilation OR increased work of breathing (WOB) on exam without respiratory support OR respiratory rate greater than 20 per minute. Exclusion criteria include: recent use of illicit drugs or alcohol abuse; known allergy to tradipitant or other neurokinin-1 antagonists; pregnancy; known HIV, HBV, or HCV infection; malignant tumor, other serious systemic diseases; and inability to provide informed consent or to have an authorized relative or designated person provide informed consent, or to comply with the protocol requirements.
Patients who meet the inclusion-exclusion criteria are randomized 1:1 to treatment with either 85 mg tradipitant twice daily (bid) per os (PO, i.e. orally) or matching placebo under double-blind conditions, in addition to standard of care for COVID-19 infection according to protocol at the treating hospital. In both arms, treatment with study medication continues for 14 days or until discharge from the hospital. In both tradipitant treatment and placebo study arms, patients are given one capsule of study medication to be taken orally every day in the morning prior to or at 9:00 am and one capsule of study medication to be taken orally every day in the evening approximately 12 hours later (±1 hour). Patients in the tradipitant treatment arm receive capsules containing 85 mg tradipitant, as well as spray-dried lactose monohydrate, microcrystalline cellulose (Avicel PH102 and PH200), povidone, croscarmellose sodium, sodium lauryl sulfate, and magnesium stearate as excipients. The tradipitant capsules are white opaque, hard gelatin capsules. Placebo capsules are provided in size and appearance identical to those containing tradipitant.
For patients requiring administration via nasogastric tube, the following procedure is used: 1) empty contents of one 85 mg capsule in a glass mortar and grind using a pestle until all granules are thoroughly crushed; 2) add 10 mL of water while continuing to grind to obtain a uniform dispersion; 3) draw up entire dispersion into a suitable syringe; 4) connect syringe tip to nasogastric tube and push entire syringe contents; and 5) rinse mortar and pestle with 5 mL of water and repeat steps 3) and 4). The crushing procedure results in the preparation of a uniform dispersion in water, which can then be administered through a nasogastric tube without clogging.
Patient assessments are performed in accordance with the schedule of evaluations detailed in Table 1 below.
Mortality is assessed as the proportion of participants with in-hospital mortality, and is evaluated per treatment arm. […]

[1] = Day 7, baseline ordinal score 3
[2] = Day 7, baseline ordinal score 4
[3] = Day 28, baseline ordinal score 2
[4] = Day 28, baseline ordinal score 3
[5] = Day 28, baseline ordinal score 4
[6] = ITT overall, >1 benefit for tradipitant
[7] = baseline ordinal score 2 (N = 4)
[8] = baseline ordinal score 3 (N = 13)
[9] = baseline ordinal score 4 (N = 9)
[10] = tradipitant arm, 85 mg bid PO plus standard of care, interim analysis

O=C(c1ccccc1Cl)c1cccnc1-c1nnn(Cc2cc(C(F)(F)F)cc(C(F)(F)F)c2)c1-c1ccncc1 [Tradipitant, {2-[1-(3,5-bistrifluoromethylbenzyl)-5-pyridin-4-yl-1H-[1,2,3]triazol-4-yl]-pyridin-3-yl}-(2-chlorophenyl)-methanone]
Mortality KM estimate (Day 7, ITT overall): 9.8% | No. of responders (improvement of 2 or more points) (Day 7, ITT overall (N = 28)): 13 | Mortality hazard ratio (95% CI) (Day 7, ITT overall, <1 benefit for tradipitant): 2.65 | Mortality KM estimate (Day 7, baseline ordinal score 2): 25.0% | No. of responders (improvement of 2 or more points) (Day 7, baseline ordinal score 2 (N = 4)): 3 | Mortality KM estimate [1]: 0.0% | No. of responders (improvement of 2 or more points) (Day 7, baseline ordinal score 3 (N = 13)): 2 | Hazard ratio (95% CI), responder as improvement of 2 or more points [1]: 2.19 | Mortality KM estimate [2]: 25.0% | No. of responders (improvement of 2 or more points) (Day 7, baseline ordinal score 4 (N = 9)): 6 | Hazard ratio (95% CI), responder as improvement of 2 or more points [2]: 2.23 | Mortality hazard ratio (95% CI) [2]: 3.14 | Mortality KM estimate (Day 28, ITT overall): 20.4% | No. of responders (improvement of 2 or more points) (Day 28, ITT overall (N = 28)): 16 | Mortality hazard ratio (95% CI) (Day 28, ITT overall, <1 benefit for tradipitant): 1.03 | Mortality KM estimate [3]: 50.0% | No. of responders (improvement of 2 or more points) (Day 28, baseline ordinal score 2 (N = 4)): 3 | Mortality hazard ratio (95% CI) [3]: 1.84 | Mortality KM estimate [4]: 9.1% | No. of responders (improvement of 2 or more points) (Day 28, baseline ordinal score 3 (N = 13)): 4 | Hazard ratio (95% CI), responder as improvement of 2 or more points [4]: 1.08 | Mortality hazard ratio (95% CI) [4]: 0.95 | Mortality KM estimate [5]: 25.0% | No. of responders (improvement of 2 or more points) (Day 28, baseline ordinal score 4 (N = 9)): 7 | Hazard ratio (95% CI), responder as improvement of 2 or more points [5]: 1.59 | Mortality hazard ratio (95% CI) [5]: 1.24 | Median time to responder (95% CI) (Day 28 analysis, ITT overall (N = 28), listed as tradipitant): 10 days | No. of deaths by day 7 (ITT overall (N = 28)): 2 | No. of deaths by day 28 (ITT overall (N = 28)): 4 | Odds ratio (95% CI), ordinal score at Day 7 [6]: 1.05 | Odds ratio (95% CI), ordinal score at Day 28 [6]: 1.01 | No. of deaths by day 7 [7]: 1 | No. of deaths by day 28 [7]: 2 | Odds ratio (95% CI), ordinal score at Day 7 (baseline ordinal score 2): 0.43 | Odds ratio (95% CI), ordinal score at Day 28 (baseline ordinal score 2): 0.43 | No. of deaths by day 7 [8]: 0 | No. of deaths by day 28 [8]: 1 | Odds ratio (95% CI), ordinal score at Day 7 (baseline ordinal score 3): 2.69 | Odds ratio (95% CI), ordinal score at Day 28 (baseline ordinal score 3): 2.21 | No. of deaths by day 7 [9]: 1 | No. of deaths by day 28 [9]: 1 | Odds ratio (95% CI), ordinal score at Day 7 (baseline ordinal score 4): 0.40 | Odds ratio (95% CI), ordinal score at Day 28 (baseline ordinal score 4): 0.62 | mortality rate [10]: 14.2% | patients showing clinical improvement (at least a 2 point improvement in the 7 point ordinal scale) [10]: 57%
